Measured values published in BindingDB's records for patent US10221174 (University of Michigan, 2019).
pIC50: −log10 of the molar value.

Biological target: Isoform Bcl-X(L) of Bcl-2-like protein 1 (Bcl-xL) (Homo sapiens, UniProt Q07817)
Sequence (Q07817 whole entry G70A, canonical isoform): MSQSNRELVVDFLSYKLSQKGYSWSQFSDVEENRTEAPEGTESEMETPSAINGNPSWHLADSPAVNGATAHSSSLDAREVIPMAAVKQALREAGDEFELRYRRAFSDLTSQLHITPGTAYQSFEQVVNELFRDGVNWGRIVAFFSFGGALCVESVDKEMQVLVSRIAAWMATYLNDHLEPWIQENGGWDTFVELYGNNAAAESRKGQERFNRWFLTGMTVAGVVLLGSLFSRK

O=C(NS(=O)(=O)c1cc([N+](=O)[O-])c2cnn(CC3CCOCC3)c2c1)c1ccc(N2CCN(CC3=C(c4ccc(Cl)cc4)CC4(CCC4)CC3)CC2)cc1Oc1cnc2[nH]ccc2c1 [US10221174, Compound 62]
pIC50: 8.40

O=C(NS(=O)(=O)c1cc([N+](=O)[O-])c2cnn(C3CCOCC3)c2c1)c1ccc(N2CCN(CC3=C(c4ccc(Cl)cc4)CC4(CCC4)CC3)CC2)cc1Oc1cnc2[nH]ccc2c1 [US10221174, Compound 64]
pIC50: 8.06
